Values after ≈ are worked out from the molar mass of the structure shown. Like-named read-outs stand apart in the source and are kept apart here.
Legend:
Solubility test = type: physicochemical; details: kinetic from dmso stock; for solubility kinetic at 16 h: 25 °C
In short: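 Dissolved concentration determined by LC/MS or SPE/MS (absolute calibration) in diluted filtrates, after 2 μL of 10 mmol/L DMSO stock was added to 198 μL JP 1st or JP 2nd fluid and equilibrated either 1 h with shaking at room temperature or 16 h standing at 25 °C.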

[1] = test system: Aβ production in neuroblastoma SH-SY5Y cells (SH/APPwt); test: β-amyloid (Aβ) production inhibitory effect in cell: 96-well; type: cell-based; details: Homo sapiens, Assay format 96-well
Protocol: Neuroblastoma SH-SY5V cells (SH/APPwt) with human wild-type R-APP excessively expressed therein were prepared at 8×10^5 cells/mL, and 150 μl portions thereof were inoculated into each well of a 96-well culture plate (Falcon). The cells were cultured for 2 hours at […]. in a 5% gaseous carbon dioxide incubator. […] Namely, the final DMSO concentration was 1%, and the amount of the cell culture was 200 μl. After the incubation was performed for 24 hours from the addition of the test compound, 100 μl of the culture supernatant was collected from each fraction. The amount of the Aβ in each fraction was measured. The Aβ amount was measured as follows. 10 μl of a homogeneous time resolved fluorescence (HTRF) measurement reagent (Amyloid β1-40 peptide: CIS bio international) and 10 μof the culture supernatant were put into a 384-well half area microplate (black microplate, Costar) and mixed with each other, and then left standing overnight at 4° C. while the light was shielded.

CYP2C19 = target: T1, CYP2C19 (Homo sapiens, UniProt P33261); test: CYP inhibition test (CYP2C19); type: in vitro ADME; details: pooled human liver microsomes; mephenytoin 4′-hydroxylation
T1 construct: The commercially available pooled human liver microsomes are used as an enzyme resource; from tissue; host or cells: pooled human liver microsomes
T1 sequence (P33261 whole entry): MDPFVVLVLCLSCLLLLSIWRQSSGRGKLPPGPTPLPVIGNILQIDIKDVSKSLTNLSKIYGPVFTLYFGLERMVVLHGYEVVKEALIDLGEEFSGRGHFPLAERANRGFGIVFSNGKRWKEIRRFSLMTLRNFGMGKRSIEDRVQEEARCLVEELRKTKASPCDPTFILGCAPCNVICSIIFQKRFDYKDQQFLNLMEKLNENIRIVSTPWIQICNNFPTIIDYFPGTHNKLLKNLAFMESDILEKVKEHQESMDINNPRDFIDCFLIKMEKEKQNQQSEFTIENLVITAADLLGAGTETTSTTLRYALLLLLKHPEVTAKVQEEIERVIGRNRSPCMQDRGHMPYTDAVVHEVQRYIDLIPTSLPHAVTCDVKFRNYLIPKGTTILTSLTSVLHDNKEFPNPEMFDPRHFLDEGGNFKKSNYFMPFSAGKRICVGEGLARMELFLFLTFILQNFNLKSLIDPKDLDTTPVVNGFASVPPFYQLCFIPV
In short: (§1)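 Pooled human liver microsomes (0.2 mg protein/mL) were incubated at 37 °C with NADPH, compound at 1, 5, 10, 20 μmol/L and marker substrates: tolbutamide 100 μmol/L (2C9), S-mephenytoin 50 μmol/L (2C19), dextromethorphan 5 μmol/L (2D6), terfenadine 1 μmol/L (3A4). Metabolites were measured by LC/MS/MS; IC50 came from logistic fitting against DMSO control.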

CYP1A2 = target: T2, CYP1A2 (Homo sapiens, UniProt P05177); test: CYP inhibition test (CYP1A2); type: in vitro ADME; details: pooled human liver microsomes; 7-ethoxyresorufin O-deethylation
T2 construct: The commercially available pooled human liver microsomes are used as an enzyme resource; from tissue; host or cells: pooled human liver microsomes
T2 sequence (P05177 1-516): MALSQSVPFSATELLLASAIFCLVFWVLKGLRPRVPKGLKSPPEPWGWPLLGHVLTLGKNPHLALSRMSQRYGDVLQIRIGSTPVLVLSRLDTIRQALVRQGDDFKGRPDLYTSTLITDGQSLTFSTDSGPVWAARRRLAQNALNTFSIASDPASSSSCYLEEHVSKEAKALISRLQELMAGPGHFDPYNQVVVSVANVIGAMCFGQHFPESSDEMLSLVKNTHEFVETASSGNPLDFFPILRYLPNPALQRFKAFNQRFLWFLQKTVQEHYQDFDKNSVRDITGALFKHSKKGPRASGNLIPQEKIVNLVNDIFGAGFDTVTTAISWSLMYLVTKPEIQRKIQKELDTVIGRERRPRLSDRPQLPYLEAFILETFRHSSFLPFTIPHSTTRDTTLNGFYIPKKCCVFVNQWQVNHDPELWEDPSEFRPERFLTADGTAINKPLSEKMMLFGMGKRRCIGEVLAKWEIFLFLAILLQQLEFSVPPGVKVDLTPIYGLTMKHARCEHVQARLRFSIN
In short: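 Inhibition of CYP1A2 was measured in commercially available pooled human liver microsomes (0.2 mg protein/mL) using 7-ethoxyresorufin O-deethylation with 0.5 μmol/L ethoxyresorufin. Test compound at 1, 5, 10, 20 μmol/L in […] Hepes buffer was incubated at 37° C. after NADPH addition; methanol/acetonitrile=1/1 (v/v) stopped the reaction, and resorufin was read fluorescently.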

CYP3A4 = target: T3, CYP3A4 (Homo sapiens, UniProt P08684); test: CYP inhibition test (CYP3A4); type: in vitro ADME; details: pooled human liver microsomes; terfenadine hydroxylation
T3 construct: The commercially available pooled human liver microsomes are used as an enzyme resource; from tissue; host or cells: pooled human liver microsomes
T3 sequence (P08684 whole entry): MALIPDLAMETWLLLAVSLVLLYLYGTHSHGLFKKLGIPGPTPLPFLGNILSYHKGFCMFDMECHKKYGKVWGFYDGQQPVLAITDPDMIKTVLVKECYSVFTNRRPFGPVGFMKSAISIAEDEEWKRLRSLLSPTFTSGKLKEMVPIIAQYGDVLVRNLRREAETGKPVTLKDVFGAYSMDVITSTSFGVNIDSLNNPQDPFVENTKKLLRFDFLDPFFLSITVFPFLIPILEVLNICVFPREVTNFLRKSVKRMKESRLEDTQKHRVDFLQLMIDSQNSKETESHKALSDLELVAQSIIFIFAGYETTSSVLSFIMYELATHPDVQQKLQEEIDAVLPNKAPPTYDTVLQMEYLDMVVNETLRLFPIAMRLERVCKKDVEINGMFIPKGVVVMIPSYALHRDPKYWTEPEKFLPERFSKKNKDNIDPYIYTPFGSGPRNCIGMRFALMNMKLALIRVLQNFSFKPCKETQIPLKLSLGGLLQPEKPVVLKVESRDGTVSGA
In short: as §1

[2] = target: T4, human ether-a-go-go related gene (hERG) channel (Homo sapiens, UniProt Q12809); test: hERG test; type: cell-based; details: % inhibition of IKr tail peak current at 3 uM; CHO cells expressing hERG
T4 construct: expressed in transfected cells; host or cells: CHO cells
T4 sequence (Q12809 whole entry): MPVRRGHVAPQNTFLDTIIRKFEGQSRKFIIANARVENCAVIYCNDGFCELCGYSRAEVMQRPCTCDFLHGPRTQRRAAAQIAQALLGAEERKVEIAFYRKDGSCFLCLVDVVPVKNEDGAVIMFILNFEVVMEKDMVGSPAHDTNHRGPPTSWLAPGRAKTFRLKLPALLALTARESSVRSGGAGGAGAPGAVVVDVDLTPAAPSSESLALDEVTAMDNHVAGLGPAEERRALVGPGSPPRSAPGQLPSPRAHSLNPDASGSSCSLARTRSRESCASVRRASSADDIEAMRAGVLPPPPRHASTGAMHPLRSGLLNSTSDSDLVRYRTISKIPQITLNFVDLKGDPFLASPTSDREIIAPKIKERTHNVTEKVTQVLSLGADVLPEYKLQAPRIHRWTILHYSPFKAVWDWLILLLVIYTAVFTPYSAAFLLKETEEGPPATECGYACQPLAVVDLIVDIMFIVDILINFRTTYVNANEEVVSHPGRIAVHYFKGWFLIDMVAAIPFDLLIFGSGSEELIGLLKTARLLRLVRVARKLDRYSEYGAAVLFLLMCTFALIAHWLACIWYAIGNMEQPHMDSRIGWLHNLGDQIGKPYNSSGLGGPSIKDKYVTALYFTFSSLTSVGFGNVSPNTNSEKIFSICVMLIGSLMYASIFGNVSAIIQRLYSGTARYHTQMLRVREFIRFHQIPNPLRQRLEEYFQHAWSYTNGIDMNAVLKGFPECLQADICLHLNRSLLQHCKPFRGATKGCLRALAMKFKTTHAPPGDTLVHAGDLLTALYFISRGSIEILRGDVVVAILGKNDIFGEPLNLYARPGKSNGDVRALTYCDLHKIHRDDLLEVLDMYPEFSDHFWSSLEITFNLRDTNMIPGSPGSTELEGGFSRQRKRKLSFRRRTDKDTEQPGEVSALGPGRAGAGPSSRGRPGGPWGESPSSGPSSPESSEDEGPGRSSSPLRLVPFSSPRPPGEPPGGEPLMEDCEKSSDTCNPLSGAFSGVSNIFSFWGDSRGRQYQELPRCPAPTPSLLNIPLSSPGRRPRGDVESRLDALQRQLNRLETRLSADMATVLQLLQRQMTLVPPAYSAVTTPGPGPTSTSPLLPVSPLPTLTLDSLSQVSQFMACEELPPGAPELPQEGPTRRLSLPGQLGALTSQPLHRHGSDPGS
In short: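 Automated whole-cell patch clamp was run on CHO cells carrying human hERG, held at −80 mV. Current was recorded during the −50 mV repolarization (2 s) that followed a 2 s +20 mV step, after a −50 mV leak pulse.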

CYP2C9 = target: T5, CYP2C9 (Homo sapiens, UniProt P11712); test: CYP inhibition test (CYP2C9); type: in vitro ADME; details: pooled human liver microsomes; tolbutamide methyl-hydroxylation
T5 construct: The commercially available pooled human liver microsomes are used as an enzyme resource; from tissue; host or cells: pooled human liver microsomes
T5 sequence (P11712 whole entry): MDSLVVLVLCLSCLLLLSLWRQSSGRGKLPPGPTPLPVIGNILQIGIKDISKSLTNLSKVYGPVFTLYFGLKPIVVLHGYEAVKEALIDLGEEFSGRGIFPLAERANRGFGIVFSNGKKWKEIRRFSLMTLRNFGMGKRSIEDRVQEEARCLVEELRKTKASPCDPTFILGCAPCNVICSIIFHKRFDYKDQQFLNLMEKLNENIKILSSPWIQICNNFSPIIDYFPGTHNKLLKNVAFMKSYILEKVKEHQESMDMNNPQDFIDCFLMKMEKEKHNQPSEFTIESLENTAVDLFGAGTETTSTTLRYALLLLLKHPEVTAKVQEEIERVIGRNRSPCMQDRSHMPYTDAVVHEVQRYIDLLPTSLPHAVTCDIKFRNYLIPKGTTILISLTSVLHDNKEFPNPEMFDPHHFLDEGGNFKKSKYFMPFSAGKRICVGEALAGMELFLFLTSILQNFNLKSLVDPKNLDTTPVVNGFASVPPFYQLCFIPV
In short: as §1

Recombinant human BACE1 = target: T6, Recombinant human BACE1 (Homo sapiens, UniProt P56817); test: Assay of BACE1 inhibitory activity: 96-well; type: biochemical; details: Assay format 96-well
T6 construct: purchased R&D Systems
T6 sequence (P56817 46-501): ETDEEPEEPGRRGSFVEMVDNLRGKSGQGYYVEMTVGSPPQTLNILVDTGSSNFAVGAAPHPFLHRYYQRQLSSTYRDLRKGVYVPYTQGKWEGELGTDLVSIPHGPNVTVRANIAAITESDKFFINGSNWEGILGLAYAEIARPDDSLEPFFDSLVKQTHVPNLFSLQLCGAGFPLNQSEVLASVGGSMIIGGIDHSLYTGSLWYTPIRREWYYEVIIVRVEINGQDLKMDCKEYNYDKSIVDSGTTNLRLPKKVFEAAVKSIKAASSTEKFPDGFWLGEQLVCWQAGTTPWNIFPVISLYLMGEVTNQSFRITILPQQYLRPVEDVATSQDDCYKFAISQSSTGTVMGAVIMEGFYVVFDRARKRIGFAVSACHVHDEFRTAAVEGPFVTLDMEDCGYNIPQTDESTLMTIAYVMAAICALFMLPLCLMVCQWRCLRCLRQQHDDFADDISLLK
Protocol: 48.5 μL of substrate peptide solution (Biotin-XSEVNLDAEFRHDSGC-Eu: X=ε-amino-n-capronic acid. Eu=Europium cryplate) was added to each well of 96-hole half-area plate (a black plate: Costar), and after addition of 0.5 μl of the compound of the present invention (DMSO solution) and 1 μl of Recombinant human BACE1(R&D Systems), the reaction mixture was incubated at 30° C. for 3.5 hours. The substrate peptide was synthesized by reacting Cryptate TBPCOOH mono SMP (CIS bio international) with Biotin-XSEVNLDAEFRHDSGC (Peptide Institute, Inc.).
After the incubation for reaction, 50 μl of 8.0 μg/ml Streptavidin-XL665 (CIS bio international) dissolved in phosphate buffer (150 mmol/L […]—KH2PO4, pH 7.0, 0.008% Triton X-100, 0.8 mol/L KF) was added to each well and left stand at 30° C. for 45 minutes.

CYP2D6 = target: T7, CYP2D6 (Homo sapiens, UniProt P10635); test: CYP inhibition test (CYP2D6); type: in vitro ADME; details: pooled human liver microsomes; dextromethorphan O-demethylation
T7 construct: The commercially available pooled human liver microsomes are used as an enzyme resource; from tissue; host or cells: pooled human liver microsomes
T7 sequence (P10635 whole entry): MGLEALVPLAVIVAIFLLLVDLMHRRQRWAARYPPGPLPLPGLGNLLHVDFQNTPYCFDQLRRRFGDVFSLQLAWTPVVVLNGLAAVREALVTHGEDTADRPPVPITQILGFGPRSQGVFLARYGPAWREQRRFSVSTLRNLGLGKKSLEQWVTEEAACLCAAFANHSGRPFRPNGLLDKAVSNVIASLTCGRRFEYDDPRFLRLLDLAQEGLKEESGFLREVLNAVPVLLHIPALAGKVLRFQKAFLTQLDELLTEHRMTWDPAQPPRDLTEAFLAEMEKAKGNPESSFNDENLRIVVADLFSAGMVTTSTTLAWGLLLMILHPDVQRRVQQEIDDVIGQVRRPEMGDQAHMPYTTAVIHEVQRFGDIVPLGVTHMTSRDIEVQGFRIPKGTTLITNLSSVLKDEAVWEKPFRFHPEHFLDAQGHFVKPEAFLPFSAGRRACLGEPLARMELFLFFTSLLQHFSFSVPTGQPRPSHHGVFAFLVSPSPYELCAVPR
Text: The CYP inhibition test is a test to assess the inhibitory effect of a compound of the present invention towards typical substrate metabolism reactions on CYP enzymes in human liver microsomes. The marker reactions on human main five CYP enzymes (CYP1A2, 2C9, 2C19, 2D6, and 3A4) are used as follows: 7-ethoxyresorufin O-deethylation (CYP1A2), tolbutamide methyl-hydroxylation (CYP2C9), mephenytoin 4′-hydroxylation (CYP2C19), dextromethorphan O-demethylation (CYP2D6), and terfenadine hydroxylation (CYP3A4). The commercially available pooled human liver microsomes are used as an enzyme resource.
The reaction conditions were as follows: substrate, 0.5 μmol/L ethoxyresorufin (CYP1A2), 100 μmol/L tolbutamide (CYP2C9), 50 μmol/L, S-mephenytoin (CYP2C19), 5 μmol/L dextromethorphan (CYP2D6), 1 μmol/L terfenadine (CYP3A4): reaction time, 15 minutes: reaction temperature, 37° C.; enzyme, pooled human liver microsomes 0.2 mg protein/mL; concentrations of the compound of the present invention, 1, 5, 10, 20 μmol/L (four points).
Five kinds of substrates, human liver microsomes, and a compound solution of the present invention in […] Hepes buffer were added to a 96-well plate at the composition as described above as a reaction solution. NADPH as a cofactor was added to this 96-well plate in order to initiate metabolism reactions. After the incubation at 37° C.for […], a methanol/acetonitrile=1/1 (v/v) solution was added to stop the reaction. After the centrifugation at 3000 rpm for 15 minutes, resorufin (CYP1A2 metabolite) in the supernatant was quantified by a fluorescent plate reader, and hydroxytolbutamide (CYP2C9 metabolite), 4′-hydroxymephenytoin (CYP2C19 metabolite), dextrorphan (CYP2D6 metabolite), and terfenadine alcohol metabolite (CYP3A4 metabolite) in the supernatant were quantified by LC/MS/MS.
The sample adding DMSO to a reaction system instead of compound of the present invention solution was adopted as a control (100%) because DMSO was used as a solvent to dissolve a compound of the present invention. Remaining activity (%) was calculated at each concentration of a compound of the present invention, and IC50 value was calculated by reverse presumption by a logistic model using a concentration and an inhibition rate.

Metabolic stability test = type: in vitro ADME; details: human liver microsomes, 37° C., 30 minutes, NADPH
In short: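 Parent compound was measured by LC/MS/MS or SPE/MS after a methanol/acetonitrile quench and reported as % remaining, with the 0 min sample set to 100%. Incubations ran 30 min at 37 °C in pH 7.4 Tris buffer containing pooled human liver microsomes at 0.5 mg protein/mL and 1 mmol/L NADPH.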

[3] = JP 1st fluid, pH 1.2, simulated gastric fluid, read-out: JP1
[4] = JP 2nd fluid A, pH 6.8, aqueous buffer, read-out: JP2_μM

| SMILES | solubility kinetic at 16 h (Solubility test; [3]) | solubility kinetic at 16 h (Solubility test; [4]) | IC50 [1] | IC50 (CYP2C19) | IC50 (CYP1A2) | IC50 (CYP3A4) | IC50 (CYP2C9) | IC50 (Recombinant human BACE1) | IC50 (CYP2D6) | remaining % (Metabolic stability test) | solubility kinetic at 1 h (Solubility test; [3]) | solubility kinetic at 1 h (Solubility test; [4]) | hERG_3 uM_% [2] |
| --- | --- | --- | --- | --- | --- | --- | --- | --- | --- | --- | --- | --- | --- |
| C[C@]1(c2nc(NC(=O)c3ccc(Cl)cn3)ccc2F)N=C(N)S[C@H](CF)[C@@H]1F [Compound I-6] |  |  | 1.29 nM | ≥ 10 µM | ≥ 20 µM | ≥ 20 µM |  | 15 nM |  |  |  |  |  |
| CO[C@H]1[C@@H](CF)OC(N)=N[C@]1(C)c1cc(NC(=O)c2ncc(Cl)cc2Cl)ccc1F [Compound I-26] | 41.9 µM (≈ 19.2 µg/mL) | > 50 µM | 1.76 nM | ≥ 20 µM |  | ≥ 20 µM | ≥ 20 µM | 33.9 nM | ≥ 20 µM | 76% |  |  | 29.6% |
| CO[C@H]1[C@@H](C(F)(F)F)OC(N)=N[C@]1(C)c1cc(NC(=O)c2ccc(C#N)cn2)ccc1F [Compound I-34] | 44.4 µM (≈ 20 µg/mL) | > 50 µM | 1.85 nM | ≥ 20 µM | ≥ 20 µM | ≥ 20 µM | ≥ 20 µM | 16.5 nM | ≥ 20 µM |  |  |  | 15.5% |
| COc1cnc(C(=O)Nc2ccc(F)c([C@@]3(C)N=C(N)O[C@H]4[C@@H]3OCC4(F)F)c2)cn1 [Compound I-36] |  |  | 2.29 nM | ≥ 20 µM | ≥ 20 µM | ≥ 20 µM | ≥ 20 µM | 22 nM | ≥ 20 µM |  | 37.6 µM (≈ 16.4 µg/mL) | 15.9 µM (≈ 6.95 µg/mL) | 29.9% |
| C[C@]1(c2cc(NC(=O)c3ccc(C#N)cn3)ccc2F)N=C(N)OCC12CC(F)(F)C2 [Compound I-43] | 29.9 µM (≈ 12.8 µg/mL) | > 50 µM | 0.615 nM | ≥ 20 µM | ≥ 20 µM | ≥ 20 µM | ≥ 20 µM | 21.8 nM | ≥ 20 µM | 84.5% |  |  |  |

Further lines, with some results ahead:

| solubility kinetic at 16 h (Solubility test; [3]) | solubility kinetic at 16 h (Solubility test; [4]) | IC50 [1] | IC50 (CYP2C19) | IC50 (CYP1A2) | IC50 (CYP3A4) | IC50 (CYP2C9) | IC50 (Recombinant human BACE1) | IC50 (CYP2D6) | remaining % (Metabolic stability test) | solubility kinetic at 1 h (Solubility test; [3]) | solubility kinetic at 1 h (Solubility test; [4]) | SMILES | hERG_3 uM_% [2] |
| --- | --- | --- | --- | --- | --- | --- | --- | --- | --- | --- | --- | --- | --- |
| 34.3 µM (≈ 15.2 µg/mL) | > 50 µM | 2.88 nM | ≥ 20 µM | ≥ 20 µM | ≥ 20 µM | ≥ 10 µM | 29.9 nM |  |  |  |  | C[C@]1(c2nc(NC(=O)c3cnc(OCF)cn3)ccc2F)N=C(N)S[C@H](CF)[C@@H]1F [Compound I-5] | 27.7% |
| 28.8 µM (≈ 12.7 µg/mL) | > 50 µM | 2.93 nM | ≥ 20 µM | ≥ 20 µM | ≥ 20 µM | ≥ 20 µM |  |  |  |  |  | CO[C@H]1[C@@H](CF)OC(N)=N[C@]1(C)c1cc(NC(=O)c2ccc(Cl)cn2)ccc1Cl [Compound I-21] | 51.1% |
| 31.2 µM (≈ 14.8 µg/mL) | > 50 µM | 4.22 nM | ≥ 20 µM | ≥ 20 µM | ≥ 20 µM | ≥ 20 µM | 23 nM | ≥ 10 µM |  |  |  | CO[C@H]1[C@@H](CF)OC(N)=N[C@]1(C)c1cc(NC(=O)c2ncc(Cl)cc2Cl)ccc1Cl [Compound I-22] | 14.2% |
| 46.7 µM (≈ 19.8 µg/mL) | > 50 µM | 1.53 nM | ≥ 20 µM | ≥ 20 µM | ≥ 20 µM | ≥ 20 µM | 34.4 nM | ≥ 20 µM | 86.6% |  |  | CO[C@H]1[C@@H](CF)OC(N)=N[C@]1(C)c1cc(NC(=O)c2ccc(Cl)cn2)ccc1F [Compound I-23] |  |

From patent publication US20170073337A1, “DIHYDROTHIAZINE AND DIHYDROOXAZINE DERIVATIVES HAVING BACE1 INHIBITORY ACTIVITY” (Shionogi & Co., Ltd., priority 2014, published 2017)
